Measurements taken from paper PMC5218480 (PLoS ONE, 2017).

Test system: MV-4-11 cells
Assay: Gene expression microarray analysis (Affymetrix PrimeView) and GSEA
Assay type: cell-based, human
Parameters: RFU PODN (11730768_x_at) / Fold change /veh PODN (11730768_x_at) / RFU LINC00158 (11744669_a_at) / Fold change /veh LINC00158 (11744669_a_at) / RFU DUSP10 (11751237_a_at) / Fold change /veh DUSP10 (11751237_a_at) / RFU ID3 (11757404_x_at) / Fold change /veh ID3 (11757404_x_at) / RFU PLEKHG5 (11737974_s_at) / Fold change /veh PLEKHG5 (11737974_s_at) / RFU LRRC4B (11730491_at) / Fold change /veh LRRC4B (11730491_at) / RFU GIMAP4 (11747438_a_at) / Fold change /veh GIMAP4 (11747438_a_at) / RFU KRT8 (11758183_x_at) / Fold change /veh KRT8 (11758183_x_at) / RFU CNN1 (11734310_a_at) / Fold change /veh CNN1 (11734310_a_at) / RFU VPS37D (11726825_at) / Fold change /veh VPS37D (11726825_at) / RFU C10orf10 (11716522_x_at) / Fold change /veh C10orf10 (11716522_x_at) / RFU KIR2DL2 /// KIR2DL4 /// KIR2DL5A /// KIR2DL5B /// KIR2DS1 /// KIR2DS2 /// KIR2DS3 /// KIR2DS4 /// KIR3DL3 /// KIR3DL3 /// KIR3DS1 (11738374_at) / Fold change /veh KIR2DL2 /// KIR2DL4 /// KIR2DL5A /// KIR2DL5B /// KIR2DS1 /// KIR2DS2 /// KIR2DS3 /// KIR2DS4 /// KIR3DL3 /// KIR3DL3 /// KIR3DS1 (11738374_at) / RFU C1QL1 (11718748_at) / Fold change /veh C1QL1 (11718748_at) / RFU TMPRSS4 (11747572_a_at) / Fold change /veh TMPRSS4 (11747572_a_at) / RFU HAMP (11756126_x_at) / Fold change /veh HAMP (11756126_x_at) / RFU RNFT2 (11725882_a_at) / Fold change /veh RNFT2 (11725882_a_at) / RFU NR4A2 (11747474_a_at) / Fold change /veh NR4A2 (11747474_a_at) / RFU ABCC12 (11746883_a_at) / Fold change /veh ABCC12 (11746883_a_at) / RFU TMEM136 (11760407_x_at) / Fold change /veh TMEM136 (11760407_x_at) / RFU CLDN22 /// WWC2 (11732394_at) / Fold change /veh CLDN22 /// WWC2 (11732394_at) / RFU HLA-DPB1 (11760878_x_at) / Fold change /veh HLA-DPB1 (11760878_x_at) / RFU SPINT1 (11716480_a_at) / Fold change /veh SPINT1 (11716480_a_at) / RFU GAP43 (11754022_s_at) / Fold change /veh GAP43 (11754022_s_at) / RFU A4GNT (11735810_at) / Fold change /veh A4GNT (11735810_at) / RFU PRB3 (11715151_x_at) / Fold change /veh PRB3 (11715151_x_at) / RFU TUBB4B (11761932_at) / Fold change /veh TUBB4B (11761932_at) / RFU CAPN14 (11732068_a_at) / Fold change /veh CAPN14 (11732068_a_at) / RFU TMCC2 (11721928_a_at) / Fold change /veh TMCC2 (11721928_a_at) / RFU IRGQ (11745062_a_at) / Fold change /veh IRGQ (11745062_a_at) / RFU FAM174B (11720279_a_at) / Fold change /veh FAM174B (11720279_a_at) / RFU TMPRSS4 (11748680_a_at) / Fold change /veh TMPRSS4 (11748680_a_at) / RFU FAM212B (11763350_a_at) / Fold change /veh FAM212B (11763350_a_at) / RFU PLEKHG5 (11743358_a_at) / Fold change /veh PLEKHG5 (11743358_a_at) / RFU ZSCAN30 (11745921_a_at) / Fold change /veh ZSCAN30 (11745921_a_at) / RFU CMKLR1 (11741424_a_at) / Fold change /veh CMKLR1 (11741424_a_at) / RFU LOC101060620 /// MAPK8IP1 (11723275_at) / Fold change /veh LOC101060620 /// MAPK8IP1 (11723275_at) / RFU SPTSSB (11747773_x_at) / Fold change /veh SPTSSB (11747773_x_at) / RFU PRSS12 (11739890_at) / Fold change /veh PRSS12 (11739890_at) / RFU BIN1 (11741810_x_at) / Fold change /veh BIN1 (11741810_x_at) / RFU WNT11 (11732464_a_at) / Fold change /veh WNT11 (11732464_a_at) / RFU C10orf10 (11716521_a_at) / Fold change /veh C10orf10 (11716521_a_at) / RFU C5orf56 (11738089_at) / Fold change /veh C5orf56 (11738089_at) / RFU CYB561 (11721691_x_at) / Fold change /veh CYB561 (11721691_x_at) / RFU ANKRD19P (11752326_a_at) / Fold change /veh ANKRD19P (11752326_a_at) / RFU OR2T12 /// OR2T33 /// OR2T8 (11738714_s_at) / Fold change /veh OR2T12 /// OR2T33 /// OR2T8 (11738714_s_at) / RFU VCAN (11748164_a_at) / Fold change /veh VCAN (11748164_a_at) / RFU JSRP1 (11732532_at) / Fold change /veh JSRP1 (11732532_at) / RFU KRTAP10-11 (11738290_x_at) / Fold change /veh KRTAP10-11 (11738290_x_at) / RFU MYO3A (11730013_a_at) / Fold change /veh MYO3A (11730013_a_at) / RFU EBF3 (11725865_a_at) / Fold change /veh EBF3 (11725865_a_at) / RFU CAMK2N1 (11719241_x_at) / Fold change /veh CAMK2N1 (11719241_x_at) / RFU C5orf56 (11738088_a_at) / Fold change /veh C5orf56 (11738088_a_at) / RFU OLFML3 (11715873_a_at) / Fold change /veh OLFML3 (11715873_a_at) / RFU LOC100653217 /// NTM (11731650_a_at) / Fold change /veh LOC100653217 /// NTM (11731650_a_at) / RFU MAPK11 (11762145_a_at) / Fold change /veh MAPK11 (11762145_a_at) / RFU FIZ1 (11724087_x_at) / Fold change /veh FIZ1 (11724087_x_at) / RFU OASL (11726364_x_at) / Fold change /veh OASL (11726364_x_at) / RFU SOX15 (11748057_x_at) / Fold change /veh SOX15 (11748057_x_at) / RFU CD79A (11719716_a_at) / Fold change /veh CD79A (11719716_a_at) / RFU HIST1H1D (11736915_at) / Fold change /veh HIST1H1D (11736915_at) / RFU CASKIN2 (11723855_a_at) / Fold change /veh CASKIN2 (11723855_a_at) / RFU LOC730098 (11760151_x_at) / Fold change /veh LOC730098 (11760151_x_at) / RFU OR4N2 (11742367_at) / Fold change /veh OR4N2 (11742367_at) / RFU PRRT2 (11749266_a_at) / Fold change /veh PRRT2 (11749266_a_at) / RFU SNX32 (11753110_a_at) / Fold change /veh SNX32 (11753110_a_at) / RFU CDHR5 (11726645_a_at) / Fold change /veh CDHR5 (11726645_a_at) / RFU RCAN1 (11760418_a_at) / Fold change /veh RCAN1 (11760418_a_at) / RFU FAM167A (11723789_a_at) / Fold change /veh FAM167A (11723789_a_at) / RFU FAM26E (11764081_at) / Fold change /veh FAM26E (11764081_at) / RFU ISYNA1 (11749810_s_at) / Fold change /veh ISYNA1 (11749810_s_at) / RFU ACY1 (11761880_at) / Fold change /veh ACY1 (11761880_at) / RFU 11764098_at / Fold change /veh 11764098_at / RFU SAMD14 (11745864_x_at) / Fold change /veh SAMD14 (11745864_x_at) / RFU NPB (11741838_a_at) / Fold change /veh NPB (11741838_a_at) / RFU TMPRSS6 (11731388_a_at) / Fold change /veh TMPRSS6 (11731388_a_at) / RFU KRTAP10-2 (11738614_at) / Fold change /veh KRTAP10-2 (11738614_at) / RFU ARHGAP8 /// PRR5-ARHGAP8 (11727945_x_at) / Fold change /veh ARHGAP8 /// PRR5-ARHGAP8 (11727945_x_at) / RFU KRTAP5-7 /// NADSYN1 (11734609_at) / Fold change /veh KRTAP5-7 /// NADSYN1 (11734609_at) / RFU RASL12 (11751679_a_at) / Fold change /veh RASL12 (11751679_a_at) / RFU CDKN2B (11736163_a_at) / Fold change /veh CDKN2B (11736163_a_at) / RFU PRF1 (11729649_at) / Fold change /veh PRF1 (11729649_at) / RFU, ZNF638 /// ZNF638-IT1 / Fold change vs veh, ZNF638 /// ZNF638-IT1 / RFU, PANK3 / Fold change vs veh, PANK3 / RFU, SH3YL1 / Fold change vs veh, SH3YL1 / RFU, ZEB2 / Fold change vs veh, ZEB2 / RFU, NRIP1 / Fold change vs veh, NRIP1 / RFU, PTTG1IP / Fold change vs veh, PTTG1IP / RFU, CAPN2 / Fold change vs veh, CAPN2 / RFU, MED14 / Fold change vs veh, MED14 / RFU, SNORA58 / Fold change vs veh, SNORA58 / RFU, C1orf63 / Fold change vs veh, C1orf63 / RFU, LRRFIP1 / Fold change vs veh, LRRFIP1 / RFU, NDUFAF7 / Fold change vs veh, NDUFAF7 / RFU, SLC12A2 / Fold change vs veh, SLC12A2 / RFU, IBTK / Fold change vs veh, IBTK / RFU, ESF1 / Fold change vs veh, ESF1 / Fold change vs veh, TMEM50B / RFU, TAOK1 / Fold change vs veh, TAOK1 / RFU, ACBD3 / Fold change vs veh, ACBD3 / RFU, TMA16 / Fold change vs veh, TMA16 / RFU, RWDD3 / Fold change vs veh, RWDD3 / RFU, BCAT1 / Fold change vs veh, BCAT1 / RFU, EDEM3 / Fold change vs veh, EDEM3 / RFU, TMEM33 / Fold change vs veh, TMEM33 / RFU, WDR75 / Fold change vs veh, WDR75 / RFU, AHCTF1 / Fold change vs veh, AHCTF1 / RFU, TFRC / Fold change vs veh, TFRC / RFU, ZDHHC17 / Fold change vs veh, ZDHHC17 / RFU, NOM1 / Fold change vs veh, NOM1 / RFU, ARL8B / Fold change vs veh, ARL8B / RFU, ZBTB11 / Fold change vs veh, ZBTB11 / RFU, TAMM41 / Fold change vs veh, TAMM41 / RFU, KIAA1704 /// LOC100996395 / Fold change vs veh, KIAA1704 /// LOC100996395 / RFU, ING1 / Fold change vs veh, ING1 / RFU, TRMT61B / Fold change vs veh, TRMT61B / RFU, FUBP3 / Fold change vs veh, FUBP3 / RFU, TP53 / Fold change vs veh, TP53 / RFU, TNKS2 / Fold change vs veh, TNKS2 / RFU, ZFP14 / Fold change vs veh, ZFP14 / RFU, ACTR2 / Fold change vs veh, ACTR2 / RFU, PPP3R1 / Fold change vs veh, PPP3R1 / RFU, PIK3R1 / Fold change vs veh, PIK3R1 / RFU, HNRNPA1 / Fold change vs veh, HNRNPA1 / RFU, RNF170 / Fold change vs veh, RNF170 / RFU, ZNF28 / Fold change vs veh, ZNF28 / RFU, RNGTT / Fold change vs veh, RNGTT / RFU, OGT / Fold change vs veh, OGT / RFU, BRD1 / Fold change vs veh, BRD1 / RFU, MARS / Fold change vs veh, MARS / RFU, ZNF655 / Fold change vs veh, ZNF655 / RFU, FAHD1 / Fold change vs veh, FAHD1 / RFU, BDP1 / Fold change vs veh, BDP1 / RFU, LRRCC1 / Fold change vs veh, LRRCC1 / RFU, ARID1A / Fold change vs veh, ARID1A / RFU, ZNF146 / Fold change vs veh, ZNF146 / RFU, ZNF330 / Fold change vs veh, ZNF330 / RFU, GPN3 / Fold change vs veh, GPN3 / RFU, C9orf123 / Fold change vs veh, C9orf123 / RFU, N4BP2L2 / Fold change vs veh, N4BP2L2 / RFU, ARFIP1 / Fold change vs veh, ARFIP1 / RFU, FAM179B / Fold change vs veh, FAM179B / RFU, BCL10 / Fold change vs veh, BCL10 / RFU, UHRF1BP1L / Fold change vs veh, UHRF1BP1L / RFU, BET1 / Fold change vs veh, BET1 / RFU, CNOT2 / Fold change vs veh, CNOT2 / RFU, ZNF268 / Fold change vs veh, ZNF268 / Fold change vs veh, ZNF507 / RFU, DGCR2 / Fold change vs veh, DGCR2 / RFU, WDSUB1 / Fold change vs veh, WDSUB1 / Fold change vs veh, HSP90B1 /// MIR3652 / RFU, ADSS / Fold change vs veh, ADSS / RFU, GK / Fold change vs veh, GK / RFU, ZNF148 / Fold change vs veh, ZNF148 / RFU, TAF9 / Fold change vs veh, TAF9 / RFU, SLC1A5 / Fold change vs veh, SLC1A5 / RFU, SLMO2 / Fold change vs veh, SLMO2 / RFU, ABCC4 / Fold change vs veh, ABCC4 / RFU, LOC101060439 /// RAP1B / Fold change vs veh, LOC101060439 /// RAP1B / RFU, RFX7 / Fold change vs veh, RFX7 / RFU, GTPBP10 / Fold change vs veh, GTPBP10 / RFU, CNEP1R1 / Fold change vs veh, CNEP1R1 / RFU, BIVM-ERCC5 /// ERCC5 / Fold change vs veh, BIVM-ERCC5 /// ERCC5 / RFU, ILF3 / Fold change vs veh, ILF3 / RFU 11762660_at / Fold change /veh 11762660_at / RFU VCAN (11757783_s_at) / Fold change /veh VCAN (11757783_s_at) / RFU DDX43 (11728927_at) / Fold change /veh DDX43 (11728927_at) / RFU KRT8 (11758188_x_at) / Fold change /veh KRT8 (11758188_x_at) / RFU NKD1 (11759106_at) / Fold change /veh NKD1 (11759106_at) / RFU SRD5A1 (11742802_a_at) / Fold change /veh SRD5A1 (11742802_a_at) / RFU TPSAB1 /// TPSB2 (11721975_s_at) / Fold change /veh TPSAB1 /// TPSB2 (11721975_s_at) / RFU GSTM3 (11746129_a_at) / Fold change /veh GSTM3 (11746129_a_at) / RFU IL23R (11737362_x_at) / Fold change /veh IL23R (11737362_x_at) / RFU TMEM51 (11727254_a_at) / Fold change /veh TMEM51 (11727254_a_at) / RFU PIWIL2 (11732686_x_at) / Fold change /veh PIWIL2 (11732686_x_at) / RFU ORM1 (11744905_x_at) / Fold change /veh ORM1 (11744905_x_at) / RFU CCDC152 (11743942_at) / Fold change /veh CCDC152 (11743942_at) / RFU ECM1 (11717891_a_at) / Fold change /veh ECM1 (11717891_a_at) / RFU IL23R (11748794_a_at) / Fold change /veh IL23R (11748794_a_at) / RFU TNFAIP8L3 (11732012_x_at) / Fold change /veh TNFAIP8L3 (11732012_x_at) / RFU MBOAT4 (11741988_at) / Fold change /veh MBOAT4 (11741988_at) / RFU 11764193_at / Fold change /veh 11764193_at / RFU TMEM53 (11763286_at) / Fold change /veh TMEM53 (11763286_at) / RFU MAGEB2 (11727129_at) / Fold change /veh MAGEB2 (11727129_at) / RFU TMEM200A (11744735_a_at) / Fold change /veh TMEM200A (11744735_a_at) / RFU CCDC152 (11751479_a_at) / Fold change /veh CCDC152 (11751479_a_at) / RFU FAM211A (11726209_a_at) / Fold change /veh FAM211A (11726209_a_at) / RFU RGS16 (11746705_a_at) / Fold change /veh RGS16 (11746705_a_at) / RFU VCAN (11755009_s_at) / Fold change /veh VCAN (11755009_s_at) / RFU RHOB (11743442_s_at) / Fold change /veh RHOB (11743442_s_at) / RFU RGS16 (11720943_a_at) / Fold change /veh RGS16 (11720943_a_at) / RFU RGS16 (11720944_at) / Fold change /veh RGS16 (11720944_at) / RFU, VPS4B / Fold change vs veh, VPS4B / RFU, CREB1 / Fold change vs veh, CREB1 / RFU, DNAJC13 / Fold change vs veh, DNAJC13 / RFU, GNAQ / Fold change vs veh, GNAQ / RFU, CDK5R1 / Fold change vs veh, CDK5R1 / RFU, ZRANB3 / Fold change vs veh, ZRANB3 / RFU, CUL4A / Fold change vs veh, CUL4A / RFU, CCNY / Fold change vs veh, CCNY / RFU, UFL1 / Fold change vs veh, UFL1 / RFU, COG3 / Fold change vs veh, COG3 / RFU, DIAPH2 / Fold change vs veh, DIAPH2 / RFU, SKA2 / Fold change vs veh, SKA2 / RFU, AFF3 / Fold change vs veh, AFF3 / RFU, LMF1 / Fold change vs veh, LMF1 / RFU, IPO11 / Fold change vs veh, IPO11 / RFU, DFFB / Fold change vs veh, DFFB / RFU, FOXP1 / Fold change vs veh, FOXP1 / RFU, CARD8 / Fold change vs veh, CARD8 / RFU, STRN3 / Fold change vs veh, STRN3 / RFU, ADK / Fold change vs veh, ADK / RFU, RASSF2 / Fold change vs veh, RASSF2 / RFU, WIPF1 / Fold change vs veh, WIPF1 / RFU, LARP1B / Fold change vs veh, LARP1B / RFU, RASA1 / Fold change vs veh, RASA1 / RFU, RB1 / Fold change vs veh, RB1 / RFU, PPFIA1 / Fold change vs veh, PPFIA1 / RFU, MAT2A / Fold change vs veh, MAT2A / RFU, CCT5 / Fold change vs veh, CCT5 / RFU, WDR92 / Fold change vs veh, WDR92 / RFU, CUX1 / Fold change vs veh, CUX1 / RFU, TTC7A / Fold change vs veh, TTC7A / RFU, TMEM135 / Fold change vs veh, TMEM135 / RFU, DEPTOR / Fold change vs veh, DEPTOR / RFU, CPM / Fold change vs veh, CPM / RFU, DNAJB6 / Fold change vs veh, DNAJB6 / RFU, CACNA2D3 / Fold change vs veh, CACNA2D3 / RFU, DTX4 / Fold change vs veh, DTX4 / RFU, TFCP2 / Fold change vs veh, TFCP2 / RFU, GMCL1 /// GMCL1P1 / Fold change vs veh, GMCL1 /// GMCL1P1 / RFU, AEBP2 / Fold change vs veh, AEBP2 / RFU, SNHG1 /// SNORD22 /// SNORD25 /// SNORD26 /// SNORD27 /// SNORD28 /// SNORD29 /// SNORD31 / Fold change vs veh, SNHG1 /// SNORD22 /// SNORD25 /// SNORD26 /// SNORD27 /// SNORD28 /// SNORD29 /// SNORD31 / Fold change (Aza/veh), C12orf56 (ProbeSet 11735607_a_at) / Fold change (ACY-1035/veh), C12orf56 (ProbeSet 11735607_a_at) / Fold change (Aza/veh), FGFR1OP (ProbeSet 11751329_s_at) / Fold change (ACY-1035/veh), FGFR1OP (ProbeSet 11751329_s_at) / Fold change (Aza/veh), VPS36 (ProbeSet 11739960_a_at) / Fold change (ACY-1035/veh), VPS36 (ProbeSet 11739960_a_at) / RFU SYPL1 (11715823_x_at) / Fold change /veh SYPL1 (11715823_x_at) / RFU IGFBP7 (11715501_s_at) / Fold change /veh IGFBP7 (11715501_s_at) / RFU REEP3 (11722064_at) / Fold change /veh REEP3 (11722064_at) / RFU IGLL1 (11728026_x_at) / Fold change /veh IGLL1 (11728026_x_at): dose or concentration left out as unconfirmed
Conditions: MV-4-11 cells, 48 hours

With Nc1ncn([C@@H]2O[C@H](CO)[C@@H](O)[C@H]2O)c(=O)n1 [azacitidine] the “RFU REEP3 (11722064_at)” value was 27.20 RFU.
